Patent publication EP0415103A1, “2,3-Dihydro-1-(pyridinylamino)-indoles, a process for their preparation and their use as medicaments” (HOECHST-ROUSSEL PHARMACEUTICALS INCORPORATED, priority 1989, dated 1991)

Legend:
[1] = test system: phenyl-para-quinone induced writhing; assay: phenyl-para-quinone writhing assay (analgesia); assay type: in vivo, mice; settings: for % Inhibition of Writhing: 20 mg/kg s.c., mice
extensor tonus = assay: supramaximal electroshock (SES) assay (anticonvulsant activity); assay type: in vivo, male mouse; settings: 30 minute pretreat, normalized relative to vehicle control
Procedure: The compounds of the invention are also useful as anticonvulsants due to their anticonvulsant activity in mammals. Anticonvulsant activity is measured in the male mouse using the supramaximal electroshock (SES) assay described in Arch. Int. Pharmacodyn. 92:97-107, 1952. In this procedure, groups of male mice are used. Drugs are prepared using distilled water and, if insoluble, a surfactant is added. Control animals receive vehicle. Drugs are routinely administered interperitoneally (i.p.). The dosage volume is 10 ml/kg. A primary screen is given a 30 minute pretreat. The animals' eyes are placed across the output terminals of an A.C. shocker that delivers 206 volts rms for 300 msec. Electrode paste coats the animals' eyes at the point of contact with the terminals. […] Protection is expressed as normalized percent inhibition relative to vehicle control.

[2] = test system: Scopolamine Induced Memory Deficit; assay: Dark Avoidance Assay (reversal of scopolamine-induced memory deficit); assay type: in vivo; settings: mice, retest after 24 hours
Procedure: In this assay, mice are tested for their ability to remember an unpleasant stimulus for a period of 24 hours. A mouse is placed in a chamber that contains a dark compartment; a strong incandescent light drives it to the dark compartment, where an electric shock is administered through metal plates on the floor. The animal is removed from the testing apparatus and tested again, 24 hours later, for the ability to remember the electric shock. If scopolamine, an anticholinergic that is known to cause memory impairment, is administered before an animal's initial exposure to the test chambers, the animal re-enters the dark compartment shortly after being placed in the test chamber 24 hours later. The effect of scopolamine is blocked by an active test compound, resulting in a greater interval before re-entry into the dark compartment. The results for an active compound are expressed as the percent of a group of animals in which the effect of scopolamine is blocked, as manifested by an increased interval between being placed in the test chamber and re-entering the dark compartment. The activity of some of the compounds of the instant invention in the assay are given below in Table 2.

In the case of `CCCN(c1ccncc1)N1CCc2ccccc21.O=C(O)C(=O)O` [2,3-Dihydro-N-propyl-N-(4-pyridinyl)-1H-indol-1-amine oxalate], the “% Inhibition of Writhing” value [1] is reported as 100% at 20 mg/kg and the “% Inhibition” value (extensor tonus; 10 mg/kg i.p.) is reported as -40% at 10 mg/kg i.p.

With `Nc1c2c(nc3ccccc13)CCCC2` [Tacrine] the “% of Animals With Scopolamine Induced Memory Deficit Reversal” value ([2]; 0.63 mg/kg s.c) was 13%.

For `c1ccc2c(c1)CCN2Nc1ccncc1` [2,3-Dihydro-N-(4-pyridinyl)-1H-indol-1-amine], the “% Inhibition of Writhing” value [1] was 74% at 20 mg/kg, the “% of Animals With Scopolamine Induced Memory Deficit Reversal” value ([2]; 0.3 mg/kg s.c.) was 53% and the “% Inhibition” value (extensor tonus; 15 mg/kg i.p.) was -40% at 15 mg/kg i.p.

In the case of `CC[C@@H]1C(=O)OC[C@@H]1Cc1cncn1C` [Pilocarpine], the “% of Animals With Scopolamine Induced Memory Deficit Reversal” value ([2]; 1.25 mg/kg s.c) is reported as 19%.

`CC(=O)Oc1ccccc1C(=O)O` [Aspirin, reference compound] was tested, and the ED50 ([1]; Mus musculus, sc, read-out: ED₅₀ (subcutaneous dose at which 50% of the phenyl-para-quinone induced writhing is inhibited)) was 32.8 mg/kg.

In the case of `CCC1(c2ccccc2)C(=O)NC(=O)NC1=O` [Phenobarbital, reference compound], the “% Inhibition” value (extensor tonus; 8.4 mg/kg i.p.) is reported as -50% at 8.4 mg/kg.
